Assays:
Format in all cases: cell-based
[1] = system: Pseudomonas aeruginosa (ATCC#15442), Pseudomonas aeruginosa (ATCC#10145), Enterobacter aerogenes (ATCC#13048), Escherichia coli (ATCC#11229), Klebsiella …; experiment: Preservative efficacy (repeated bacterial challenge) of dimethoxane/CMIT/MIT in commercial water-based latex paint (pH 7.4), 96-deep well block
Method: (§1) In the following examples, tests are conducted in a 96-deep well block format using a total sample volume of 600 μl for all evaluations. In these samples, no more than 10% of the total volume consists of the biocide and organism solution and all non-matrix additions are normalized for all samples. Each experimental 96-well block contains biocide-treated samples and control samples which lack biocide.
(§2) Twenty-four hour tryptic soy broth cultures are combined in equal parts for formulation inoculation at a final concentration of 5×10^6 CFU/ml. Organisms are added to each sample of the 96-well block and mixed until homogenous. Additionally, bacterial challenges of the industrial or household product occur on days 2, 7, and 14 of the 28-day test period.
(§3) Sample aliquots are removed, at predetermined time points, for the enumeration of surviving microorganisms. Numerical values in the data tables listed below represent the log10 viable microorganisms recovered from individual samples at specific time points and biocide concentrations post microorganism addition. Biocide concentrations resulting in a≧4 log10 kill of microorganisms, as compared to the preservative-free control, were deemed a significant reduction of viable organisms and were subsequently used for calculating synergy index values.
(§4) The reported synergy indexes are measured and calculated using the formula described below. In this approach, a synergy index of 1 indicates additivity. If the index is less than 1, synergy has occurred, while a synergy index greater than 1 indicates antagonism. Synergy index=CA/Ca+CB/Cb Ca=minimal concentration of antimicrobial A, alone, producing a 4 log10 microbial kill Cb=minimal concentration of antimicrobial B, alone, producing a 4 log10 microbial kill
(§5) CA and CB=the concentrations of antimicrobials A and B, in combination, producing a 4 log10 microbial kill.
The antimicrobial profiles of 2,6-dimethyl-m-dioxan-4-ol acetate (dimethoxane), 5-chloro-2-methyl-4-isothiazolin-3-one/2-methyl-4-isothiazolin-3-one (CMIT/MIT) and combinations of dimethoxane/CMIT/MIT are evaluated in a commercial (interior eggshell) water-based latex paint formulation (pH 7.4). The paint formulation is determined to be free of microbial contamination prior to initiation of preservative efficacy evaluations.
(§6) Organisms for this example: Pseudomonas aeruginosa (ATCC#15442), Pseudomonas aeruginosa (ATCC#10145), Enterobacter aerogenes (ATCC#13048), Escherichia coli (ATCC#11229), Klebsiella pneumoniae (ATCC#8308), Staphylococcus aureus (ATCC#6538), Salmonella choleraesuis (ATCC#10708).

[2] = system: Pseudomonas aeruginosa (ATCC#15442), Pseudomonas aeruginosa (ATCC#10145), Enterobacter aerogenes (ATCC#13048), Escherichia coli (ATCC#11229), Klebsiella …; experiment: Preservative efficacy (repeated bacterial challenge) of dimethoxane/BIT in commercial water-based latex paint (pH 7.4), 96-deep well block
Method: as §1, §2, §3, §4, §5
The antimicrobial profiles of dimethoxane, BIT, and combinations of dimethoxane/BIT are evaluated in a commercial (interior eggshell) water-based latex paint formulation (pH 7.4). The paint formulation is determined to be free of microbial contamination prior to initiation of preservative efficacy evaluations.
as §6

[3] = system: Pseudomonas aeruginosa (ATCC#15442), Pseudomonas aeruginosa (ATCC#10145), Enterobacter gergoviae (ATCC#33028), Escherichia coli (ATCC#11229), Pseudomonas …; experiment: Preservative efficacy (repeated bacterial challenge) of dimethoxane/MIT in commercial liquid laundry detergent (pH 8.0), 96-deep well block; conditions: day 20
Method: as §1, §2, §3, §4, §5
The antimicrobial profiles of 2,6-dimethyl-m-dioxan-4-ol acetate (dimethoxane), 2-methyl-3-isothiazolinone (MIT), and combinations of dimethoxane/MIT are evaluated in a commercial liquid laundry detergent formulation (pH 8.0). The detergent formulation is determined to be free of microbial contamination prior to initiation of preservative efficacy evaluations.
Organisms for this example: Pseudomonas aeruginosa (ATCC#15442), Pseudomonas aeruginosa (ATCC#10145), Enterobacter gergoviae (ATCC#33028), Escherichia coli (ATCC#11229), Pseudomonas putida (ATCC#49128), Staphylococcus aureus (ATCC#6538).

[4] = system: wild strain of green algae isolated from contaminated PVA latex; experiment: Challenge testing of PVA latex against wild strain of green algae; conditions: Dimethoxane 2000 ppm alone (CMIT/MIT 0 ppm), three weeks
Method: Procedure. In this example, a viscous PVA (poly vinyl acetate) latex diluted with water at 5 to 1 ratio is used for algal efficacy testing. Each sample is mixed well by hand and vortex for 2 minutes. 5mL portions of each sample are then placed in a six-well plate and inoculated with 500 μL of 1×10^6 cfu/mL wild strain of green algae isolated from contaminated PVA latex.
The plates are incubated at room temp (25° C.-26° C.) under cyclic exposure to light (OTT-Lite model #OTL4012P, 40 Watt, 26 KLumen) and dark phases, for a period of three weeks.

[5] = system: Pseudomonas aeruginosa (ATCC#15442), Pseudomonas aeruginosa (ATCC#10145), Enterobacter aerogenes (ATCC#13048), Escherichia coli (ATCC#11229), Klebsiella …; experiment: Preservative efficacy (repeated bacterial challenge) of dimethoxane/BIT in commercial liquid laundry detergent (pH 8.0), 96-deep well block
Method: as §1, §2, §3, §4, §5
The antimicrobial profiles dimethoxane, 1,2-benzisothiazol-3-one (BIT), and combinations of dimethoxane/BIT are evaluated in a commercial liquid laundry detergent formulation (pH 8.0).
as §6

[6] = day 20, ppm active, following four bacterial challenges

## CC(=O)OC1CC(C)OC(C)O1 (stereo not shown) [DMX, 2,6-dimethyl-m-dioxane-4-ol acetate]
[1]; 480 h, 1740 ppm
  log10 viable microorganisms: 2 log10
[1]; DMX alone 102 ppm a.i., day 20
  log10 viable microorganisms: 8 log10
[1]; DMX alone 153 ppm a.i., day 20
  log10 viable microorganisms: 8 log10
[1]; DMX alone 229 ppm a.i., day 20
  log10 viable microorganisms: 7 log10
[1]; DMX alone 344 ppm a.i., day 20
  log10 viable microorganisms: 7 log10
[1]; DMX alone 516 ppm a.i., day 20
  log10 viable microorganisms: 8 log10
[1]; DMX alone 773 ppm a.i., day 20
  log10 viable microorganisms: 8 log10
[1]; DMX alone 1160 ppm a.i., day 20
  log10 viable microorganisms: 6 log10
[1]; [6]
  DMX alone (minimal concentration producing a 4 log10 microbial kill): 1740 ppm
[2]; 360 h, 1160 ppm
  log10 viable microorganisms: 3 log10
[2]; DMX alone 102 ppm a.i., day 15
  log10 viable microorganisms: 7 log10
[2]; DMX alone 153 ppm a.i., day 15
  log10 viable microorganisms: 8 log10
[2]; DMX alone 229 ppm a.i., day 15
  log10 viable microorganisms: 7 log10
[2]; DMX alone 344 ppm a.i., day 15
  log10 viable microorganisms: 7 log10
[2]; DMX alone 516 ppm a.i., day 15
  log10 viable microorganisms: 8 log10
[2]; DMX alone 773 ppm a.i., day 15
  log10 viable microorganisms: 7 log10
[2]; DMX alone 1740 ppm a.i., day 15
  log10 viable microorganisms: 0 log10
[2]; day 15, ppm active, following four bacterial challenges
  DMX alone (minimal concentration producing a 4 log10 microbial kill): 1160 ppm
[3]; DMX alone 77 ppm
  log10 viable microorganisms: 8.0 log10
[3]; DMX alone 115 ppm
  log10 viable microorganisms: 8.0 log10
[3]; DMX alone 172 ppm
  log10 viable microorganisms: 8.0 log10
[3]; DMX alone 257 ppm
  log10 viable microorganisms: 5.0 log10
[3]; DMX alone 386 ppm
  log10 viable microorganisms: 4.0 log10
[3]; DMX alone 580 ppm
  log10 viable microorganisms: 3.0 log10
[3]; DMX alone 870 ppm
  log10 viable microorganisms: 1.0 log10
[3]; DMX alone 1305 ppm
  log10 viable microorganisms: 0.0 log10
[3]
  DMX alone (minimal concentration producing a 4 log10 microbial kill): 870
[4]
  % algal growth Sample A: 15%
  % algal growth Sample B: 15%
[5]; 480 h, 1160 ppm
  log10 viable microorganisms: 0.0 log10
[5]; DMX alone 102 ppm a.i., day 20
  log10 viable microorganisms: 6.0 log10
[5]; DMX alone 153 ppm a.i., day 20
  log10 viable microorganisms: 6.0 log10
[5]; DMX alone 229 ppm a.i., day 20
  log10 viable microorganisms: 6.0 log10
[5]; DMX alone 344 ppm a.i., day 20
  log10 viable microorganisms: 6.0 log10
[5]; DMX alone 516 ppm a.i., day 20
  log10 viable microorganisms: 6.0 log10
[5]; DMX alone 773 ppm a.i., day 20
  log10 viable microorganisms: 4.0 log10
[5]; DMX alone 1740 ppm a.i., day 20
  log10 viable microorganisms: 0.0 log10
[5]; [6]
  DMX alone (minimal concentration producing a 4 log10 microbial kill): 1160 ppm

## O=c1[nH]sc2ccccc12 [BIT, 1,2-benzisothiazol-3-one]
[2]; BIT alone 29 ppm, day 15
  log10 viable microorganisms (score): 8 log10
[2]; BIT alone 44 ppm, day 15
  log10 viable microorganisms (score): 7 log10
[2]; BIT alone 66 ppm, day 15
  log10 viable microorganisms (score): 6 log10
[2]; BIT alone 99 ppm, day 15
  log10 viable microorganisms (score): 7 log10
[2]; BIT alone 148 ppm, day 15
  log10 viable microorganisms (score): 7 log10
[2]; BIT alone 222 ppm, day 15
  log10 viable microorganisms (score): 8 log10
[2]; BIT alone 333 ppm, day 15
  log10 viable microorganisms (score): 8 log10
[2]; BIT alone 500 ppm, day 15
  log10 viable microorganisms (score): 5 log10
[5]; BIT alone 18 ppm, day 20
  log10 viable microorganisms (score): 6.0 log10
[5]; BIT alone 26 ppm, day 20
  log10 viable microorganisms (score): 7.0 log10
[5]; BIT alone 40 ppm, day 20
  log10 viable microorganisms (score): 3.0 log10
[5]; BIT alone 59 ppm, day 20
  log10 viable microorganisms (score): 0.0 log10
[5]; BIT alone 89 ppm, day 20
  log10 viable microorganisms (score): 0.0 log10
[5]; BIT alone 133 ppm, day 20
  log10 viable microorganisms (score): 0.0 log10
[5]; BIT alone 200 ppm, day 20
  log10 viable microorganisms (score): 1.0 log10
[5]; BIT alone 300 ppm, day 20
  log10 viable microorganisms (score): 1.0 log10
[5]; [6]
  BIT alone (minimal concentration producing a 4 log10 microbial kill): 59 ppm

## Cn1ccc(=O)s1 [MIT, 2-Methyl-3-isothiazolinone]
[3]; MIT alone 3 ppm
  log10 viable microorganisms (score): 8.0 log10
[3]; MIT alone 4 ppm
  log10 viable microorganisms (score): 8.0 log10
[3]; MIT alone 7 ppm
  log10 viable microorganisms (score): 8.0 log10
[3]; MIT alone 10 ppm
  log10 viable microorganisms (score): 8.0 log10
[3]; MIT alone 15 ppm
  log10 viable microorganisms (score): 8.0 log10
[3]; MIT alone 22 ppm
  log10 viable microorganisms (score): 8.0 log10
[3]; MIT alone 33 ppm
  log10 viable microorganisms (score): 8.0 log10
[3]; MIT alone 50 ppm
  log10 viable microorganisms (score): 3.0 log10
[3]
  MIT Alone (minimal concentration producing a 4 log10 microbial kill): >50 ppm
